{
  "source": "patent US20030220300A1",
  "about": "“Reduction of hair growth” (priority 2002, published 2003)",
  "key": {"[1]": {"test_system": "Human hair follicles in growth phase (anagen)", "assay": "Human hair follicle growth assay", "format": "cell-based", "settings": "for % Reduction of human hair follicle growth / Hair follicle length increase (mm) Treated: day 0 to day 7 (Table II)", "excerpt": "Human Hair Follicle Growth Assay\nTissue source—Human skin was obtained from a plastic surgeon as a by-product of face-lift procedures. Immediately after removal, the skin was placed in Williams E medium containing antibiotics and refrigerated. The Williams E medium is a commercially obtained medium which has been formulated with essential nutrients for maintaining viability of tissues or cells such as of hair follicle in an in-vitro environment.\nHair Follicle Isolation and Culture—Human hair follicles in growth phase (anagen) were isolated from face-lift tissue (obtained from plastic surgeons) under dissecting scope using a scalpel and watchmakers forceps. The skin was sliced into thin strips exposing 2-3 rows of follicles that could readily be dissected. Follicles were placed into 0.5 ml William's E medium (Life Technologies, Gaithersburg, Md.) supplemented with 2 mM L-glutamine, 10 μg/ml insulin, 10 ng/ml hydrocortisone, 100 units of penicillin, 0.1 mg/ml streptomycin and 0.25 μg/ml amphotericin B. The follicles were incubated in 24-well plates (1 follicle/well) at 37° C. in an atmosphere of 5% CO2 and 95% air. Thiazolidinediones are dissolved into dimethyl sulfoxide as 100-fold stock solution. The control hair follicles were treated with dimethyl sulfoxide without thiazolidinedione. The follicles were photographed in the 24-well plates under the dissecting scope at a power of 10×. Typically, image recordings were made on day 0 (day follicles were placed in culture), and again on day 7. The length of Hair follicle was assessed using an image analysis software system (Jasc Image Robot). The growth of hair fiber was calculated by the subtracting the follicle length on day 0 from that determined on day 7."}, "[2]": {"test_system": "Golden Syrian hamster flank organs (hair growth)", "assay": "Golden Syrian hamster assay (hair mass assay)", "format": "in vivo", "settings": "topical, three weeks", "excerpt": "Golden Syrian Hamster Assay\nMale intact Golden Syrian hamsters are considered acceptable models for human beard hair growth in that they display oval shaped flank organs, one on each side, each about 8 mm. in major diameter. These organs produce fine light colored hair typical of the animal pelage found on the body. In response to androgens the flank organs produce dark coarse hair similar to male human beard hair. To evaluate the effectiveness of a composition in reducing hair growth, the flank organs of each of a group of hamsters are depilated by applying a thioglycolate based chemical depilatory (Surgex) and/or shaved. To one organ of each animal 10 μl. of vehicle alone once a day is applied, while to the other organ of each animal an equal amount of vehicle containing the ligand under evaluation is applied. After three weeks of topical applications (one application per day for five days a week), the flank organs are shaved and the amount of recovered hair (hair mass) from each is weighed. Percent-reduction of hair growth is calculated by subtracting the hair mass (mg) value of the test compound treated side from the hair mass value of the vehicle treated side; the delta value obtained is then divided by the hair mass value of the vehicle treated side, and the resultant number is multiplied by 100.\nThe above-described assay will be referred to herein as the “Golden Syrian hamster” assay or “hair mass” assay. Preferred compositions provide a reduction in hair growth of at least about 15% and more preferably at least about 35%, when tested in the Golden Syrian hamster assay."}},
  "data": [
    {"smiles": "O=C1NC(=S)SC1=Cc1cc([N+](=O)[O-])ccc1Sc1ccccc1", "note": "[5-(5-nitro-2-phenylsulfanyl-benzylidene)-2-thioxo-thiazolidin-4-one]", "values": [
      {"measurement": "% Reduction", "setting": "[1]; 0.1 μM (Table VI)", "result": "66.9 ± 15.2", "unit": "%"},
      {"measurement": "Hair follicle length increase (mm)", "setting": "[1]; 0.1 μM (Table VI)", "result": "0.37 ± 0.17", "unit": "mm"},
      {"measurement": "% Reduction", "setting": "[1]; 0.5 μM (Table VI)", "result": "85.7 ± 15.2", "unit": "%"},
      {"measurement": "Hair follicle length increase (mm)", "setting": "[1]; 0.5 μM (Table VI)", "result": "0.16 ± 0.17", "unit": "mm"},
      {"measurement": "% Reduction", "setting": "[1]; 1.0 μM (Table VI)", "result": "93.7 ± 7.1", "unit": "%"},
      {"measurement": "Hair follicle length increase (mm)", "setting": "[1]; 1.0 μM (Table VI)", "result": "0.07 ± 0.08", "unit": "mm"},
      {"measurement": "% Reduction of human hair follicle growth", "setting": "[1]; 10 μM", "result": "94.6 ± 3.9", "unit": "%"},
      {"measurement": "Hair follicle length increase (mm) Treated", "setting": "[1]; 10 μM", "result": "0.11 ± 0.08", "unit": "mm"},
      {"measurement": "Effect on human hair growth (in words)", "setting": "[1]; human hair follicle growth assay, summary of Table II", "result": "can reduce human hair growth"}
    ]},
    {"smiles": "CC1(COc2ccc(CC3SC(=O)NC3=O)cc2)CCCCC1", "note": "(centres unmarked) [Ciglitazone, ciglitazone]", "values": [
      {"measurement": "% Reduction of hamster hair mass", "setting": "[2]; dose 1.3%, vehicle A", "result": "22.7 ± 5.8", "unit": "%"},
      {"measurement": "Treated (mg) hair mass", "setting": "[2]; dose 1.3%, vehicle A", "result": "2.78 ± 0.23", "unit": "mg"},
      {"measurement": "% Reduction of hamster hair mass", "setting": "[2]; dose 1.3%, vehicle A, listed as ciglitazone", "result": 22.7, "unit": "%"},
      {"measurement": "% Reduction", "setting": "[1]; 3 μM (Table III)", "result": "38.2 ± 23.0", "unit": "%"},
      {"measurement": "Hair follicle length increase (mm)", "setting": "[1]; 3 μM (Table III)", "result": "1.34 ± 0.5", "unit": "mm"},
      {"measurement": "% Reduction", "setting": "[1]; 6 μM (Table III)", "result": "75.1 ± 13.8", "unit": "%"},
      {"measurement": "Hair follicle length increase (mm)", "setting": "[1]; 6 μM (Table III)", "result": "0.54 ± 0.3", "unit": "mm"},
      {"measurement": "% Reduction", "setting": "[1]; 9 μM (Table III)", "result": "90.8 ± 9.2", "unit": "%"},
      {"measurement": "Hair follicle length increase (mm)", "setting": "[1]; 9 μM (Table III)", "result": "0.2 ± 0.2", "unit": "mm"},
      {"measurement": "% Reduction of human hair follicle growth", "setting": "[1]; 20 μM", "result": "87.5 ± 15.6", "unit": "%"},
      {"measurement": "Hair follicle length increase (mm) Treated", "setting": "[1]; 20 μM", "result": "0.19 ± 0.24", "unit": "mm"}
    ]},
    {"smiles": "CCc1ccc(CCOc2ccc(CC3SC(=O)NC3=O)cc2)nc1", "note": "(centres unmarked) [Pioglitazone, pioglitazone]", "values": [
      {"measurement": "% Reduction of hamster hair mass", "setting": "[2]; dose 5%, vehicle B", "result": "47.7 ± 4.1", "unit": "%"},
      {"measurement": "Treated (mg) hair mass", "setting": "[2]; dose 5%, vehicle B", "result": "1.32 ± 0.06", "unit": "mg"},
      {"measurement": "% Reduction of hamster hair mass", "setting": "[2]; dose 5%, vehicle B, listed as pioglitazone", "result": 47.7, "unit": "%"},
      {"measurement": "% Reduction", "setting": "[1]; 15 μM (Table IV)", "result": "30.2 ± 19.8", "unit": "%"},
      {"measurement": "Hair follicle length increase (mm)", "setting": "[1]; 15 μM (Table IV)", "result": "0.67 ± 0.19", "unit": "mm"},
      {"measurement": "% Reduction", "setting": "[1]; 30 μM (Table IV)", "result": "76.0 ± 16.7", "unit": "%"},
      {"measurement": "Hair follicle length increase (mm)", "setting": "[1]; 30 μM (Table IV)", "result": "0.23 ± 0.16", "unit": "mm"},
      {"measurement": "% Reduction", "setting": "[1]; 45 μM (Table IV)", "result": "89.6 ± 14.6", "unit": "%"},
      {"measurement": "Hair follicle length increase (mm)", "setting": "[1]; 45 μM (Table IV)", "result": "0.1 ± 0.14", "unit": "mm"},
      {"measurement": "% Reduction of human hair follicle growth", "setting": "[1]; 50 μM", "result": "86.7 ± 6.2", "unit": "%"},
      {"measurement": "Hair follicle length increase (mm) Treated", "setting": "[1]; 50 μM", "result": "0.15 ± 0.07", "unit": "mm"}
    ]},
    {"smiles": "CN(CCOc1ccc(CC2SC(=O)NC2=O)cc1)c1ccccn1", "note": "(centres unmarked) [Rosiglitazone, rosiglitazone]", "values": [
      {"measurement": "% Reduction of hamster hair mass", "setting": "[2]; dose 10%, vehicle A", "result": "40.0 ± 5.0", "unit": "%"},
      {"measurement": "Treated (mg) hair mass", "setting": "[2]; dose 10%, vehicle A", "result": "1.78 ± 0.71", "unit": "mg"},
      {"measurement": "% Reduction of hamster hair mass", "setting": "[2]; dose 10%, vehicle A, listed as rosiglitazone", "result": 40, "unit": "%"},
      {"measurement": "% Reduction", "setting": "[1]; 20 μM (Table V)", "result": "34.8 ± 20.6", "unit": "%"},
      {"measurement": "Hair follicle length increase (mm)", "setting": "[1]; 20 μM (Table V)", "result": "0.92 ± 0.29", "unit": "mm"},
      {"measurement": "% Reduction", "setting": "[1]; 40 μM (Table V)", "result": "47.5 ± 10.6", "unit": "%"},
      {"measurement": "Hair follicle length increase (mm)", "setting": "[1]; 40 μM (Table V)", "result": "0.74 ± 0.15", "unit": "mm"},
      {"measurement": "% Reduction", "setting": "[1]; 60 μM (Table V)", "result": "63.1 ± 14.1", "unit": "%"},
      {"measurement": "Hair follicle length increase (mm)", "setting": "[1]; 60 μM (Table V)", "result": "0.52 ± 0.2", "unit": "mm"},
      {"measurement": "% Reduction of human hair follicle growth", "setting": "[1]; 100 μM", "result": "75.2 ± 16.5", "unit": "%"},
      {"measurement": "Hair follicle length increase (mm) Treated", "setting": "[1]; 100 μM", "result": "0.24 ± 0.16", "unit": "mm"}
    ]},
    {"smiles": "Cc1c(C)c2c(c(C)c1O)CCC(C)(COc1ccc(CC3SC(=O)NC3=O)cc1)O2", "note": "(centres unmarked) [Troglitazone, troglitazone]", "values": [
      {"measurement": "% Reduction of human hair follicle growth", "setting": "[1]; 100 μM", "result": "91.5 ± 6.2", "unit": "%"},
      {"measurement": "Hair follicle length increase (mm) Treated", "setting": "[1]; 100 μM", "result": "0.11 ± 0.08", "unit": "mm"}
    ]}
  ]
}
